Measured values taken from US7307082B2, “Heterocyclic derivatives as CRF antagonists” (Roche Palo Alto LLC, priority 2003, dated 2007).

Experiments:
[1] = target: T1, CRF receptor (Homo sapiens, UniProt P34998); assay: CRF Receptor Binding Assay (competition with [125I]Tyr0-ovine CRF, IMR-32 cell membranes); conditions: Human IMR-32 neuroblastoma cell membranes
T1 construct: Cell membranes are prepared according the method of Dieterich and DeSouza (1996); endogenous in cells; host or cells: IMR-32 human neuroblastoma cells (membrane preparation)
T1 sequence (P34998 24-415): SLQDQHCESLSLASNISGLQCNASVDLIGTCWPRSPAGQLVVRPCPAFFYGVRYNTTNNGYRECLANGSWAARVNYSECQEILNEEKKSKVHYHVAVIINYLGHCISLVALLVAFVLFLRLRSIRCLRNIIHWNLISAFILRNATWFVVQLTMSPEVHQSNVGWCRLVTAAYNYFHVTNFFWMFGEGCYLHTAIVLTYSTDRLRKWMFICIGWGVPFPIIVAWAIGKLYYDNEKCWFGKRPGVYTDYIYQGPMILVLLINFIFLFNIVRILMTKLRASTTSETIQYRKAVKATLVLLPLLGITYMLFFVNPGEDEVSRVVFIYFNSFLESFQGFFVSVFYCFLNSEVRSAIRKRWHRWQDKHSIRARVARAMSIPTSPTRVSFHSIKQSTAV
Experimental: CRF Receptor Binding Assay
Human IMR-32 neuroblastoma cells are grown to 80% confluence in MEM medium containing 10% heat-inactivated FBS, 1 mM sodium pyruvate, and 0.1 mM nonessential amino acids. Cell membranes are prepared according the method of Dieterich and DeSouza (1996). The cells (˜5E+9) are resuspended in 10 volumes of wash buffer (5 mM Tris HCl, 10 mM MgCl2, 2 mM EGTA, pH 7.4 at RT), homogenized with a Polytron, and then centrifuged at 45,000 G for 20 min at 4° C. The membrane pellets are washed twice with wash buffer (45,000 G for 20 min at 4° C.) and then resuspended (50 mM Tris HCl, 10 mM MgCl2, 2 mM EGTA, pH 7.4 at RT). Protein concentration is determined using Pierce reagents and BSA as standard. Aliquots of 1-1.5 mL are stored at −80° C. until binding assay.
The competition binding assay is performed in a final volume of 250 μl, which contains assay buffer (50 mM Tris-HCl, 10 mM MgCl2, 2 mM EGTA, 0.2% BSA, 0.1 mM bacitracin and 100 kIU/mL aprotinin pH 7.2 at R.T.), 0.05 nM [^125I]Tyr^0-ovine CRF (Du Pont New England Nuclear), 50 μg of membrane protein, and test compound at various concentrations. Non-specific binding is determined with 1 uM hCRF. […] Unbound radioactivity is removed by four rapid washes (0.8 ml/well) with wash buffer. The radioactivity is quantified using a Packard TopCount. […]

Structure (SMILES) | melting point [°C] | IC50 ([1]; 0.05 nM [125I]Tyr0-ovine CRF, 2 hr at 25° C.) [nM] | Ki ([1]; pKi values are derived from pIC50 values) [nM]
CCCC(CCC)N1CCCc2c(C)nc(Nc3ccc(C(C)C)cc3Br)nc21.Cl | 182 to 184 |  | 
CCC(CC)N1CCc2c(C)nc(N(CC)c3c(C)cc(C)cc3C)nc21 [Cpd 2, Ethyl-[7-(1-ethyl-propyl)-4-meth-yl-6,7-dihydro-5H-pyr-rolo[2,3-d]pyrimidin-2-yl]-(2,4,6-tri-methyl-phenyl)-amine;compound with trifluoro-aceticacid] |  | 2090 | 195
CCCC(CCC)N1CCCc2c(C)nc(N(CC)c3ccc(C(C)C)cc3Br)nc21.Cl | 201 to 205 |  | 

Next, values leading:

melting point [°C] | IC50 ([1]; 0.05 nM [125I]Tyr0-ovine CRF, 2 hr at 25° C.) [nM] | Ki ([1]; pKi values are derived from pIC50 values) [nM] | Structure (SMILES)
124 to 126 |  |  | CCC(CC)N1C(=O)CCc2c(C)nc(Nc3ccc(C(C)C)cc3Br)nc21 [Cpd 113, 2-(2-Bromo-4-isopropyl-phenyl-amino)-8-(1-ethyl-propyl)-4-meth-yl-5,8-dihydro-6H-pyrido[2,3-d]py-rimidin-7-one]
92 to 94 |  |  | CCCC(CCC)N1C(=O)CCc2c(C)nc(N(CC)c3ccc(C(C)C)cc3Br)nc21 [Cpd 117, 2-[(2-Bromo-4-isopropyl-phenyl)-eth-yl-amino]-4-methyl-8-(1-propyl-bu-tyl)-5,8-dihydro-6H-pyrido[2,3-d]py-rimidin-7-one]
